Measured values as given in US20100285959A1, “HERBICIDAL MIXTURES” (priority 2006, published 2010).

Key:
[1] = tested on: corn (ZEAMD); experiment: Test 28 greenhouse, post- and preemergence; assay type: in vivo, Zea mays ssp. indentata; parameters: scale not given here; settings: 26 DAA
Experimental: (§1) A greenhouse test was conducted to evaluate the effects on the plant species corn (ZEAMD, Zea mays ssp. indentata), sorghum (SORVU, Sorghum vulgare L.), dry-seeded rice (ORYSA, Oryza sativa L.), wheat (TRZAW, Triticum aestivum L.), ivyleaf morningglory (IPOHE, Ipomoea hederacea (L.) JACQ.), and barnyardgrass (ECHCG, Echinochloa crus-galli (L.) P. BEAUV.), of mixtures of Compound 2 with isoxadifen-ethyl. Corn, sorghum, rice, wheat, ivyleaf morningglory and barnyardgrass seeds were planted in RediEarth, a commercial potting medium. […] Corn plants were treated postemergence at the V2 growth stage, and sorghum, rice, wheat, ivyleaf morningglory, and barnyardgrass plants were treated postemergence at the 3-leaf stage. […] Each treatment was replicated three times. […] Plants were watered as needed.

[2] = tested on: dry-seeded rice (ORYSA); experiment: Test 28 greenhouse, postemergence; assay type: in vivo, Oryza sativa; settings: 26 DAA
Experimental: as §1

[3] = tested on: giant ragweed (AMBTR); experiment: Test 25 field trial, postemergence, growth as percent of control; assay type: in vivo, Ambrosia trifida; settings: 14 DAA
Text: Corn seeds (hybrid ‘Pioneer 31G96 RR’) were planted in mid spring season, 3.8 cm deep in a clay loam soil having 2% organic matter and a pH of 6.6. Plots were 6.1 m long by 3.0 m wide with rows spaced 76 cm apart. Seeds were spaced 15 cm apart within the rows. The field was managed using conventional tillage practices. […] Giant ragweed and Pennsylvania smartweed could only be evaluated 14 days after application. […] Results are the means of the three replicates. This growth inhibition data was converted to results in the form of “plant growth as a percent of control plant growth” using the calculation “100 minus growth inhibition”.
When this form of Colby's Equation is used, if the observed effects on weeds are less than the expected values, the mixture is synergistic.

[4] = tested on: common lambsquarters (CHEAL); experiment: Test 24 growth chamber, postemergence; assay type: in vivo, Chenopodium album; settings: 17 DAA
Experimental: (§2) Plants were treated postemergence at the 2-4 leaf growth stage, and each treatment was replicated three times. […] Plants were watered as needed. […] Results for barley and wheat are the means across varieties of the three replicates, and results for the weeds are the means of the three replicates.

[5] = tested on: wild mustard (SINAR); experiment: Test 24 growth chamber, postemergence; assay type: in vivo, Sinapis arvensis; settings: 17 DAA
Experimental: as §2

[6] = tested on: corn (ZEAMD); experiment: Test 26 field trial, postemergence; assay type: in vivo, Zea mays ssp. indentata; parameters: scale not given here
Text: Corn seeds (hybrid ‘Pioneer 31G96’) were planted in mid spring season, 3.8 cm deep in a silt loam soil having 2% organic matter and a pH of 6.6. Plots were 6.1 m long by 3.0 m wide with rows spaced 76 cm apart. Seeds were spaced 15 cm apart within the rows. The field was managed using conventional tillage practices. […] All treatments also included a surfactant. […] Some of the weed species could not be evaluated at every timing. […] Results are the means of the three replicates.

[7] = tested on: common chickweed (STEME); experiment: Test 24 growth chamber, postemergence; assay type: in vivo, Stellaria media; settings: 17 DAA
Experimental: as §2

[8] = tested on: kochia (KCHSC); experiment: Test 24 growth chamber, postemergence; assay type: in vivo, Kochia scoparia; settings: 17 DAA
Experimental: as §2

[9] = tested on: wild buckwheat (POLCO); experiment: Test 24 growth chamber, postemergence; assay type: in vivo, Polygonum convolvulus; settings: 17 DAA
Experimental: as §2

[10] = tested on: wheat (TRZAW); experiment: Test 28 greenhouse, post- and preemergence; assay type: in vivo, Triticum aestivum; settings: 26 DAA
Experimental: as §1

[11] = tested on: corn (ZEAMD); experiment: Test 14 field trial, preemergence, growth as percent of control; assay type: in vivo, Zea mays ssp. indentata; settings: 1870 g a.i./ha
Text: Corn seeds (hybrid ‘Pioneer 31G96 RR’) were planted in mid spring season, 3.8 cm deep in a clay loam soil having 2% organic matter and a pH of 6.6. Plots were 6.1 m long by 3.0 m wide with rows spaced 76 cm apart. Seeds were spaced 15 cm apart within the rows. The field was managed using conventional tillage practices. […] Yellow nutsedge was only evaluated 19 and 28 days after application, and ivyleaf morningglory could only be evaluated 28 days after application. […] Results are the means of the three replicates. This growth inhibition data was converted to results in the form of “plant growth as a percent of control plant growth” using the calculation “100 minus growth inhibition”. […] For “growth as a percent of control” data, Colby's Equation calculates the expected additive effect of herbicidal mixtures having two active ingredients as follows:
Ga+b=GaGb/100 • wherein Ga+b is the growth as a percent of control of plants treated with the mixture expected from additive contribution of the individual components, • Ga is the observed growth as a percent of control of plants treated with the first active ingredient at the same use rate as in the mixture, and • Gb is the observed growth as a percent of control of plants treated with the second active ingredient at the same use rate as in the mixture. For mixtures having three active ingredients, Colby's Equation to calculate the expected additive effect of herbicidal mixtures is as follows:
Ga+b+c=GaGbGc/10,000 • wherein Ga and Gb are as defined above and • Ga+b+c is the growth as a percent of control of plants treated with the mixture expected from additive contribution of the individual components, and • Gc is the observed growth as a percent of control of plants treated with the third active ingredient at the same use rate as in the mixture. When these two forms of Colby's Equation are used, if the observed effects on weeds are less than the expected values, the mixture is synergistic.

[12] = postemergence, Cpd 2 32 g a.i./ha
[13] = postemergence, Cpd 2 64 g a.i./ha
[14] = preemergence, Cpd 2 32 g a.i./ha
[15] = preemergence, Cpd 2 64 g a.i./ha

## COC(=O)c1nc(C2CC2)nc(N)c1Cl [Compound 2, methyl 6-amino-5-chloro-2-cyclopropyl-4-pyrimidinecarboxylate]
[1]; [12]
  ZEAMD Obs: 27
[1]; [13]
  ZEAMD Obs: 50
[1]; [14]
  ZEAMD Obs: 7
[1]; [15]
  ZEAMD Obs: 7
[2]; Cpd 2 32 g a.i./ha
  ORYSA Obs: 60
[2]; Cpd 2 64 g a.i./ha
  ORYSA Obs: 83
[3]; Cpd 2 30 g a.i./ha
  AMBTR Obs (percent of control): 5%
[3]; Cpd 2 45 g a.i./ha
  AMBTR Obs (percent of control): 0%
[4]; Cpd 2 4 g a.i./ha
  CHEAL Obs (scale 0 to 100): 45
[4]; Cpd 2 8 g a.i./ha
  CHEAL Obs (scale 0 to 100): 60
[4]; Cpd 2 16 g a.i./ha
  CHEAL Obs (scale 0 to 100): 73
[5]; Cpd 2 4 g a.i./ha
  SINAR Obs (scale 0 to 100): 62
[5]; Cpd 2 8 g a.i./ha
  SINAR Obs (scale 0 to 100): 65
[5]; Cpd 2 16 g a.i./ha
  SINAR Obs (scale 0 to 100): 72
[6]; 14 DAA, 30 g a.i./ha
  ZEAMD Obs: 0
[6]; 14 DAA, 45 g a.i./ha
  ZEAMD Obs: 2
[6]; 14 DAA, 60 g a.i./ha
  ZEAMD Obs: 7
[6]; 28 DAA, 30 g a.i./ha
  ZEAMD Obs: 2
[6]; 28 DAA, 45 g a.i./ha
  ZEAMD Obs: 3
[6]; 28 DAA, 60 g a.i./ha
  ZEAMD Obs: 5
[6]; 56 DAA, 30 g a.i./ha
  ZEAMD Obs: 0
[6]; 56 DAA, 45 g a.i./ha
  ZEAMD Obs: 0
[6]; 56 DAA, 60 g a.i./ha
  ZEAMD Obs: 7
[7]; Cpd 2 4 g a.i./ha
  STEME Obs (scale 0 to 100): 47
[7]; Cpd 2 8 g a.i./ha
  STEME Obs (scale 0 to 100): 63
[7]; Cpd 2 16 g a.i./ha
  STEME Obs (scale 0 to 100): 67
[8]; Cpd 2 4 g a.i./ha
  KCHSC Obs (scale 0 to 100): 65
[8]; Cpd 2 8 g a.i./ha
  KCHSC Obs (scale 0 to 100): 77
[8]; Cpd 2 16 g a.i./ha
  KCHSC Obs (scale 0 to 100): 88
[9]; Cpd 2 4 g a.i./ha
  POLCO Obs (scale 0 to 100): 55
[9]; Cpd 2 8 g a.i./ha
  POLCO Obs (scale 0 to 100): 60
[9]; Cpd 2 16 g a.i./ha
  POLCO Obs (scale 0 to 100): 70
[10]; [12]
  TRZAW Obs: 80%
[10]; [13]
  TRZAW Obs: 90%
[10]; [14]
  TRZAW Obs: 0%
[10]; [15]
  TRZAW Obs: 27%

## CCc1cccc(C)c1N(C(=O)CCl)[C@@H](C)COC [S-Metolachlor, S-metolachlor, reference compound]
[11]; 19 DAA
  Obs growth % of control: 98%
[11]; 28 DAA
  Obs growth % of control: 98%
[11]; 56 DAA
  Obs growth % of control: 100%
